Laboratory results from patent US20230148450A9, “BICYCLIC HETEROARYL COMPOUNDS AND USES THEREOF” (Revolution Medicines, Inc., priority 2019, published 2023).

Key:
[1] = target: T1, SOS1 nucleotide exchange of KRAS (catalytic domain of SOS1, residues 564-1049; wild-type KRAS) (Homo sapiens, UniProt Q07889); assay: Mode of Action Assay: Inhibition of SOS1 Nucleotide Exchange Activity (TR-FRET); format: biochemical; settings: TR-FRET signal
T1 construct: tagless catalytic domain of SOS1 (residues 564-1049)
T1 sequence (Q07889 564-1049): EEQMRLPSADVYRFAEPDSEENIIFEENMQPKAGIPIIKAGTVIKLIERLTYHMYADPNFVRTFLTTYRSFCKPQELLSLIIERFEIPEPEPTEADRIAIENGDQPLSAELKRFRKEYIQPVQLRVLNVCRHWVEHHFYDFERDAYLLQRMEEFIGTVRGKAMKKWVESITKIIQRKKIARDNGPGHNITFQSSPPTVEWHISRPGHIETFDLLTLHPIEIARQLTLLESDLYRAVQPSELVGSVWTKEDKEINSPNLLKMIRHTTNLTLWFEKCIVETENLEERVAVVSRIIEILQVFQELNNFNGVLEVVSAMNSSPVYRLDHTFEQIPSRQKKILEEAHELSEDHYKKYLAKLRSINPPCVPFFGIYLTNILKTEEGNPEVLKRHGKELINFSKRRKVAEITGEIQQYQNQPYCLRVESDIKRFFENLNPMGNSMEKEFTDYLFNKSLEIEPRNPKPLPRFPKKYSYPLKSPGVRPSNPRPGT
Method: The purpose of this assay was to characterize the inhibitory activity of compounds on SOS1 nucleotide exchange of KRAS. Data was reported as IC50 values based on the TR-FRET signal.
Note—the following protocol describes a procedure for monitoring the inhibition of SOS1 nucleotide exchange activity of wild-type KRAS in response to a compound of the invention. Other KRAS mutants and RAS isoforms maybe employed.
In assay buffer containing 20 mM HEPES, pH 7.5, 150 mM NaCl, 5 mM MgCl2, 0.05% Tween-20, 0.1% BSA, 1 mM DTT, concentration series of test compounds were generated spanning 100 μM to 1.7 nM over eleven 3-fold serial dilutions in a 384-well assay plate at a volume of 20 μL. The purified tagless catalytic domain of SOS1 (residues 564-1049) was first diluted in assay buffer at a concentration of 100 nM, and then 20 μL of the SOS1 containing solution was directly dispensed into compound plates. The SOS1/compound mixture was incubated at room temperature with constant mixing on an orbital shaker for 20 minutes to allow the reaction to reach equilibrium. A KRAS mixture was prepared by diluting 66.7 nM avi-tagged KRAS (residue 1-169), 3.33 nM Streptavidin-Tb and 333 nM EDA-GTP-DY-647P1 in assay buffer. This mixture was prepared immediately before addition to the SOS1/compound mixture to prevent intrinsic nucleotide exchange. Then 5 μL of the pre-incubated SOS1/compound mixture and 7.5 μL of the KRAS mixture were added sequentially in a 384-well low volume black round bottom plate and incubated at room temperature with constant shaking for 30 minutes. Time-resolved fluorescence was measured on a PerkinElmer Envision plate reader. DMSO and 10 μM of compound (i) were used as negative and positive controls, respectively.
Three replicates were performed for each compound. Data were normalized by the following: (Positive control—Sample signal)/(Positive control—negative control)*100. The data were fit using a four-parameter logistic fit.

[2] = test system: cellular pERK in PC-9 cells (EGFR Ex19Del); assay: Potency Assay: pERK; format: cell-based; settings: Homo sapiens; PC-9 cells (EGFR Ex19Del), 1 hour incubation, AlphaLISA p-ERK1/2; read-out: SOS1 pERK IC50
Text: The purpose of this assay is to measure the ability of test compounds to inhibit SOS1 function in cells. SOS1 activates RAS proteins by catalyzing the conversion of […] to […] in response to receptor tyrosine kinase activation. Activation of RAS induces a sequence of cellular signaling events that results in increased phosphorylation of ERK at […] (pERK). The procedure described below measures the level of cellular pERK in response to test compounds in PC-9 cells (EGFR Ex[…]). PC-9 cells were grown and maintained using media and procedures recommended by the ATCC. On the day prior to compound addition, cells were plated in 384-well cell culture plates (40 μL/well) and grown overnight in a 37° C., 5% CO2 incubator. Test compounds were prepared in 10, 3-fold dilutions in DMSO, with a top concentration of 10 mM. On the day of the assay, 40 nL of test compound was added to each well of cell culture plate using an Echo550 liquid handler (LabCyte). Concentrations of test compound were tested in duplicate with highest test concentration being 10 μM. After compound addition, cells were incubated for 1 hour at 37° C., 5% CO2. Following incubation, culture medium was removed and cells were washed once with phosphate buffered saline. Cellular pERK level was determined using the AlphaLISA SureFire Ultra p-ERK1/2 Assay Kit (PerkinElmer). Cells were lysed in 25 μL lysis buffer, with shaking at 600 RPM at room temperature for 15 minutes. Lysate (10 μL) was transferred to a 384-well Opti-plate (PerkinElmer) and 5 μL acceptor mix was added. The plate was centrifuged at 1000 RPM for 1 minute, and incubated in the dark for 2 hours. Following this incubation, 5 μL of donor mix was added, the plate was sealed and centrifuged at 1000 RPM for 1 minute, and the mixture was incubated for 2 hours at room temperature. Signal was read on an Envision plate reader (PerkinElmer) using standard AlphaLISA settings. Analysis of raw data was carried out in Excel (Microsoft) and Prism (GraphPad). Signal was plotted vs. the decadal logarithm of compound concentration, and IC50 was determined by fitting a 4-parameter sigmoidal concentration response model.

[3] = target: T2, SOS1 catalytic domain (residues 564-1049) (Homo sapiens, UniProt Q07889); assay: Binding affinity to SOS1 using Surface Plasmon Resonance (SPR); settings: avi-tagged SOS1 catalytic domain immobilized on sensor chip; read-out: SOS1 SPR Equilibrium Kd
T2 construct: SOS1 catalytic domain (residues 564-1049) immobilized on a sensor chip
T2 sequence (Q07889 564-1049): T1 sequence (Q07889 564-1049)
Text: Potency Assay: Measurement of the Binding Affinity of Compounds of the Invention to SOS! using Surface Plasmon Resonance (SPR)
The purpose of the SPR assay was to measure the direct binding of compounds to SOS1 catalytic domain (residues 564-1049) immobilized on a sensor chip. Data was reported as equilibrium dissociation constant (Kd) values.
Using a GE Biacore 8K SPR instrument, avi-tagged SOS1 catalytic domain protein was immobilized to a level of approximately 6000 response units (RU) on a streptavidin-coated SPR sensor chip in assay buffer containing 0.01 M HEPES, 0.15 M NaCl and 0.05% v/v Surfactant P20. In assay buffer containing 2% DMSO, concentration series of test compounds were generated spanning 5 μM to 4.9 nM over ten 2-fold dilutions. For each test compound, a separate 0 μM sample was generated for use during subsequent double reference subtraction. Serially for each test compound, individual dilution samples were flowed over the immobilized SOS1 protein at a flow rate of 50 μL/minute to monitor the association with SOS1. Dissociation of bound test compound from the SOS1 protein was immediately monitored by flowing assay buffer over the sensor surface and monitoring the decrease in binding signal back to the baseline level seen in the absence of compound. This was repeated for all compound dilutions in each series. The binding level response for each test compound concentration was noted immediately prior to the end of the association phase, and a secondary plot generated showing binding response level versus test compound concentration generated for each compound dilution series.

## Cc1nc(N[C@H](C)c2cc(N)cc(C(F)(F)F)c2)c2cc(C(=O)N3CCN(C)CC3)cn2n1 [Example 36, (R)-(4-((1-(3-amino-5-(trifluoromethyl)phenyl)ethyl)amino)-2-methylpyrrolo[2,1-f][1,2,4]triazin-6-yl)(4-methylpiperazin-1-yl)methanone]
[1]
  IC50: < 1 µM
[2]
  IC50: < 1 µM
[3]
  Kd: ≤ 0.4 µM

## Cc1nc(N[C@H](C)c2cc(N)cc(C(F)(F)F)c2)c2cc(C(=O)N3CCN(C)CC3)n(C)c2n1 [Example 37, [4-[[(1R)-1-[3-amino-5-(trifluoromethyl)phenyl]ethyl]amino]-2,7-dimethyl-pyrrolo[2,3-d]pyrimidin-6-yl]-(4-methylpiperazin-1-yl)methanone]
[1]
  IC50: > 1 µM
[2]
  IC50: > 1 µM
[3]
  Kd: > 0.4 µM

## C[C@@H](Nc1nc(Cl)nc2c1cc(C1=CCNCC1)n2C)c1cc(N)cc(C(F)(F)F)c1 [Example 39, N-[(1R)-1-[3-amino-5-(trifluoromethyl)phenyl]ethyl]-2-chloro-7-methyl-6-(1,2,3,6-tetrahydropyridin-4-yl)pyrrolo[2,3-d]pyrimidin-4-amine]
[1]
  IC50: > 1 µM
[2]
  IC50: > 1 µM
[3]
  Kd: ≤ 0.4 µM

## CNCc1ccccc1-c1ccc(C(C)Nc2nc(C)nn3cc(C4=CCNCC4)cc23)s1 (stereo not drawn) [Example 40, 2-methyl-N-[1-[5-[2-(methylaminomethyl)phenyl]-2-thienyl]ethyl]-6-(1,2,3,6-tetrahydropyridin-4-yl)pyrrolo[2,1-f][1,2,4]triazin-4-amine]
[1]
  IC50: > 1 µM
[2]
  IC50: > 1 µM
[3]
  Kd: ≤ 0.4 µM

## Cc1nc(N[C@H](C)c2cc(N)cc(C(F)(F)F)c2)c2cc(C(=O)N3CCOCC3)cn2n1 [Example 41, [4-[[(1R)-1-[3-amino-5-(trifluoromethyl)phenyl]ethyl]amino]-2-methyl-pyrrolo[2,1-f][1,2,4]triazin-6-yl]morpholino-methanone]
[1]
  IC50: < 1 µM
[2]
  IC50: < 1 µM
[3]
  Kd: ≤ 0.4 µM

## C[C@@H](Nc1ncnc2sc(C(=O)N3CCOCC3)nc12)c1cc(N)cc(C(F)(F)F)c1 [Example 42, [7-[[(1R)-1-[3-amino-5-(trifluoromethyl)phenyl]ethyl]amino]thiazolo[5,4-d]pyrimidin-2-yl]-morpholino-methanone]
[1]
  IC50: < 1 µM
[2]
  IC50: < 1 µM
[3]
  Kd: ≤ 0.4 µM

## C[C@@H](Nc1ncnn2cc(N3CCOCC3)cc12)c1cc(N)cc(C(F)(F)F)c1 [Example 47, N-[(1R)-1-[3-amino-5-(trifluoromethyl)phenyl]ethyl]-6-morpholino-pyrrolo[2,1-f][1,2,4]triazin-4-amine]
[1]
  IC50: > 1 µM
[2]
  IC50: > 1 µM
[3]
  Kd: > 0.4 µM

## C[C@@H](Nc1ncnn2cc(C(=O)N3CCOCC3)cc12)c1cc(N)cc(C(F)(F)F)c1 [Example 50, N-[(1R)-1-[3-amino-5-(trifluoromethyl)phenyl]ethyl]-6-(morpholine-4-carbonyl)pyrrolo[2,1-f][1,2,4]triazin-4-amine]
[1]
  IC50: < 1 µM
[2]
  IC50: < 1 µM
[3]
  Kd: > 0.4 µM

## C[C@@H](Nc1nc(Cl)nc2cc(C(=O)N3CCOCC3)[nH]c12)c1cc(N)cc(C(F)(F)F)c1 [Example 51, N-[(1R)-1-[3-amino-5-(trifluoromethyl)phenyl]ethyl]-2-chloro-6-(morpholine-4-carbonyl)-5H-pyrrolo[3,2-d]pyrimidin-4-amine]
[1]
  IC50: > 1 µM
[2]
  IC50: > 1 µM
[3]
  Kd: > 0.4 µM

## C[C@@H](Nc1nccn2nc(C3=CCNCC3)nc12)c1cc(N)cc(C(F)(F)F)c1 [Example 53, N-[(1R)-1-[3-amino-5-(trifluoromethyl)phenyl]ethyl]-2-(1,2,3,6-tetrahydropyridin-4-yl)-[1,2,4]triazolo[1,5-a]pyrazin-8-amine]
[1]
  IC50: > 1 µM
[2]
  IC50: > 1 µM
[3]
  Kd: ≤ 0.4 µM

## C[C@@H](Nc1ncnc2[nH]c(C(=O)N3CCOCC3)nc12)c1cc(N)cc(C(F)(F)F)c1 [Example 57, N-[(1R)-1-[3-amino-5-(trifluoromethyl)phenyl]ethyl]-8-(morpholine-4-carbonyl)-9H-purin-6-amine]
[1]
  IC50: < 1 µM
[2]
  IC50: < 1 µM
[3]
  Kd: ≤ 0.4 µM

## C[C@@H](Nc1ncnc2sc(C(=O)N3CCOCC3)cc12)c1cc(N)cc(C(F)(F)F)c1 [Example 65, N-[(1R)-1-[3-amino-5-(trifluoromethyl)phenyl]ethyl]-6-(morpholine-4-carbonyl)thieno[2,3-d]pyrimidin-4-amine]
[1]
  IC50: < 1 µM
[2]
  IC50: < 1 µM
[3]
  Kd: ≤ 0.4 µM

## C[C@@H](Nc1ncnn2cc(C(=O)N3CCN(C)CC3)cc12)c1cccc(C(F)F)c1F [Example 69]
[1]
  IC50: < 1 µM
[2]
  IC50: < 1 µM
[3]
  Kd: ≤ 0.4 µM

## C[C@@H](Nc1ncnn2cc(C(=O)N3CC4(CN(C)C4)C3)cc12)c1cccc(C(F)F)c1F [Example 70]
[1]
  IC50: < 1 µM
[2]
  IC50: < 1 µM
[3]
  Kd: ≤ 0.4 µM

## C[C@@H](Nc1ncnn2cc(C(=O)N3CC4(COC4)C3)cc12)c1cccc(C(F)F)c1F [Example 71]
[1]
  IC50: < 1 µM
[2]
  IC50: < 1 µM
[3]
  Kd: ≤ 0.4 µM

## C[C@@H](Nc1ncnn2cc(C(=O)N3CC4(C3)CN(C3COC3)C4)cc12)c1cccc(C(F)F)c1F [Example 72]
[1]
  IC50: < 1 µM
[2]
  IC50: < 1 µM
[3]
  Kd: ≤ 0.4 µM
